US12653887B2, “T cell manufacturing compositions and methods” (priority 2019, dated 2026)

Legend:
CD8+ naïve T cells = assay: CD8+ naïve T cell induction (protocol 1 / protocol 2), pMHC multimer flow cytometry; assay type: cell-based, human; settings: for fraction of antigen specific CD8+ T cells (multimer): HD35
Protocol: • DC media (Cellgenix) • CD14 microbeads, human, Miltenyi #130-050-201 • Cytokines and/or growth factors • T cell media (AIM V+RPMI 1640 glutamax+serum+PenStrep) • Peptide stocks—1 mM per peptide (HIV A02—5-10 peptides, HIV B07—5-10 peptides, DOM—4-8 peptides, PIN—6-12 peptides) Procedure: Step 1: Monocyte Isolation for DC Prep • 1. Calculate the approximate number of PBMCs to thaw based on expected DC yield for each donor. • 2. Thaw PBMCs and resuspend at ˜1×10^6-1×10^8 cells/mL in DC media. • 3. Add benzonase (1:1000 dilution) and place in incubator with cap loosened. • 4. Perform CD14^+ monocyte enrichment according to manufacturer protocol. • 5. Plate enriched cells in 6-well plates at 1×10^5-1×10^7 per well in DC media with one or more cytokines and/or growth factors selected from GM-CSF, IL-4, FLT3L, TNF-α, IL-1β, PGE1, IL-6, IL-7, IFN-α, R848, LPS, ss-rna40, and polyI:C. Step 2: Peptide Loading and Maturation • 1. Count DCs and split the cells according to the experimental conditions in 15 mL tubes; 0.01-1 million cells per condition. • 2. Spin @1200 rpm for 5 min and resuspend in 50-400 μL DC medium. Add peptide(s) and place in incubator with loosened cap for 0.5-3 hrs. Volumes were calculated for peptide pools at a concentration of 1 mM per peptide. A volume of each separate pool of A02 (5 peptides) and B07 (5 peptides) was added per well for a final concentration of 0.001-100 μM per peptide. • 3. After 0.5-3 hrs. add 200 μL to 1.5 mL of DC media containing maturation mix and transfer the cells to 24 well plate. The maturation mix contains one or more cytokines selected from GM-CSF, IL-4, FLT3L, TNF-α, IL-1β, PGE1, IL-6, IL-7, IFN-α, R848, LPS, ss-rna40, and polyI:C. Step 3: Setting Up Long Term Stimulation (LTS) Experiment • 1. Carefully remove all media from the wells of the DC plates, transferring each well to a separate well in a 24-well deepwell block. • 2. Wash each well with 0.5-3 mL T cell media and combine with DC media in the deepwell block. • 3. Add 100 μL to 2 mL T cell media to each well. • 4. Spin down DCs at 1200 rpm for 5 min. • 5. Remove all supernatant, resuspend DCs in 100 μL to 2 mL T cell media and transfer back into the correct wells. • 6. Thaw PBMCs in T cell media and resuspend at 0.5×10^6-4×10^6 cells/mL in T cell media with IL-7 and IL-15. • 7. Add 0.5-3 mL of prepared PBMCs to each well. Step 4: Feeding LTS
• AIM V media (Invitrogen) • Media 1 (RPMI 1640 glutamax+serum+PenStrep) • Media 2 (AIM V+RPMI 1640 glutamax+serum+PenStrep) Procedure: • Step 1: Plate 4 million PBMCs in each well of 24 well plate with one or more cytokines in Media 2. The one or more cytokines are selected from GM-CSF, IL-4, FLT3L, TNF-α, IL-1β, PGE1, IL-6, IL-7, IFN-α, R848, LPS, ss-rna40, and polyI:C. • Step 2: Peptide loading and maturation in Media 2 • 1. Make stock peptide pool of interest (except for no peptide condition) at 0.001-100 μM for shortmers and 0.001-100 μM for longmers final concentration in respective wells and mix. • 2. Incubate for 0.5-3 hr. • 3. Make stock maturation cocktail and add to each well after incubation and mix. […]

CD8+ T cells = assay: RNA nucleofection of differently prepared PBMCs, multimer assay; assay type: cell-based, human; settings: for Hit Rate (%) / Mean Frequency: immunogen RNA (25 mer epitopes)
Protocol: In this experiment, PBMCs were variously treated for depletion of certain populations and their expansion and multimer specificity was investigated. Yield of multimer specific T cells was tested by nucleofecting three sets of PBMC preparations with RNA constructs: (i) CD25 depleted PBMCs, (ii) CD14 and CD25 depleted PBMCs, (iii) Frozen CD14 and CD25 depleted PBMCs. In preparation (i), T cells were not separated from the APCs during nucleofection like in preparation (ii) and (iii). These were compared with a set of PBMCs loaded with peptides. All cells were treated with FLT3L prior to electroporation. […] It could be possible that less handling of PBMCs before RNA loading step was advantageous. Depletion of multiple cell components in the PBMC population required subjecting the cell population to multiple antibodies, washing steps and recovery steps, which amounts to handling stress for the cells.
CD25 depleted PBMCs had detectable Gli3 specific CD8+ T cells, and ME1 specific CD8+ T cells. ME1 specific CD8+ T cells were negligible in all the other sets.

HLA-A02:01 = target: T1, HLA-A02:01 (Homo sapiens, UniProt P04439, D140Y/D185E/D98H/E176V/E277Q/G131W/G231S/I119V/I121R/I166T/I218V/L300P/L318F/N151K/N90K/P208A/P217A/Q86G/Q94H/R138H/R169H/T345S); assay: Epitope presentation after RNA electroporation of CD25 depleted PBMC, HLA immunoprecipitation and LC-MS/MS; assay type: cell-based; settings: over 24 hours
T1 construct: endogenous in cells; host or cells: CD25 depleted PBMCs (donor cells)
Protocol: CD25 depleted PBMC cells were electroporated with RNA (depicted in FIG. 60C) and cultured over a period of 24 hours. Cells were harvested at the indicated times, pelleted and flash frozen. HLA-A02:01-peptide complexes were immunoprecipitated and then peptides were eluted and analyzed by LC-MS/MS. Peptide eluted from electroporated cells (Light) were compared to heavy labelled standard peptides (Heavy) for positive identification. (FIG. 63A).

[1] = Donor 1, starting material CD14-CD25- (Base Arm)
[2] = Donor 1, starting material CD14-CD25- (Frozen)
[3] = Donor 1, starting material PBMC (CD25−), IL-7 and IL-15
[4] = Donor 2, starting material CD14-CD25- (Base Arm)
[5] = Donor 2, starting material CD14-CD25- (Frozen)
[6] = Donor 2, starting material PBMC (CD25−), IL-7 and IL-15
[7] = Donor 2, starting material PBMC (CD25−)

| Substance | Hit Rate (%) (CD8+ T cells; [1]) | Hit Rate (%) (CD8+ T cells; [2]) | Hit Rate (%) (CD8+ T cells; [3]) | Hit Rate (%) (CD8+ T cells; [4]) | Hit Rate (%) (CD8+ T cells; [5]) | Hit Rate (%) (CD8+ T cells; [6]) | presentation of the epitope by HLA-A02:01 after RNA electroporation (HLA-A02:01) | Mean Frequency (CD8+ T cells; [4]) [%] | Mean Frequency (CD8+ T cells; [5]) [%] | Mean Frequency (CD8+ T cells; [7]) [%] | also measured |
| --- | --- | --- | --- | --- | --- | --- | --- | --- | --- | --- | --- |
| ACTN4: previously identified neoantigen (PIN) short peptide; also encoded in RNA (FIASNGVKLV) | 0 | 0 | 0 | 0 | 0 | 0 | expressed readily as dominant epitopes |  |  |  | fraction of antigen specific CD8+ T cells (multimer) (CD8+ naïve T cells; Prot. 2 (CD25 depleted), day 26, confirmation): 0.095%; fraction of antigen specific CD8+ T cells (multimer) (CD8+ naïve T cells; Prot. 2 (CD25 depleted), day 26, initial): 0.376% |
| CDK4: CDK4 epitope encoded in the RNA (25 mer epitopes) construct (ACDPHSGHFV) | 0 | 0 | 0 | 0 | 0 | 0 | expressed readily as dominant epitopes |  |  |  |  |
| Gli3: Gli3 epitope encoded in the RNA (25 mer epitopes) construct (RLIPGIPTV) | 100 | 100 | 83 | 100 | 67 | 83 | expressed readily as dominant epitopes | 0.79 | 0.12 | 2.68 | Mean Frequency (CD8+ T cells; [1]): 0.98%; Mean Frequency (CD8+ T cells; [2]): 0.52%; Mean Frequency (CD8+ T cells; Donor 1, starting material PBMC (CD25−)): 6.09%; increase in multimer positive cells, RNA transfected versus peptide loaded PBMCs (CD8+ T cells; FIG. 61B): greater than 10 fold |
| ME-1: previously identified neoantigen (PIN) short peptide; also encoded in RNA (FLDEFMEGV) | 0 | 0 | 0 | 83 | 0 | 67 | expressed readily as dominant epitopes | 0.01 | 0.01 | 2.97 | fraction of antigen specific CD8+ T cells (multimer) (CD8+ naïve T cells; Prot. 2 (bulk), day 19, confirmation): 0.927%; fraction of antigen specific CD8+ T cells (multimer) (CD8+ naïve T cells; Prot. 2 (bulk), day 19, initial): 4.15%; fraction of antigen specific CD8+ T cells (multimer) (CD8+ naïve T cells; Prot. 2 (bulk), day 26, confirmation): 2.34%; fraction of antigen specific CD8+ T cells (multimer) (CD8+ naïve T cells; Prot. 2 (bulk), day 26, initial): 12.6%; CD8+ T cells specific to the peptide (CD8+ naïve T cells; protocol 2, after a long induction): 12.6% |
